From article PMC4072591, “FGFR2 Is Amplified in the NCI-H716 Colorectal Cancer Cell Line and Is Required for Growth and Survival” (PLoS ONE, 2014)

Target: T1, FGFR2 (Homo sapiens, UniProt P21802)
T1 construct: endogenous amplified FGFR2 in NCI-H716 cells
Experiment: FGFR2 Y653/[…] phosphorylation in NCI-H716 cells, western blot quantitation
Assay type: cell-based

T1 sequence (P21802 22-821): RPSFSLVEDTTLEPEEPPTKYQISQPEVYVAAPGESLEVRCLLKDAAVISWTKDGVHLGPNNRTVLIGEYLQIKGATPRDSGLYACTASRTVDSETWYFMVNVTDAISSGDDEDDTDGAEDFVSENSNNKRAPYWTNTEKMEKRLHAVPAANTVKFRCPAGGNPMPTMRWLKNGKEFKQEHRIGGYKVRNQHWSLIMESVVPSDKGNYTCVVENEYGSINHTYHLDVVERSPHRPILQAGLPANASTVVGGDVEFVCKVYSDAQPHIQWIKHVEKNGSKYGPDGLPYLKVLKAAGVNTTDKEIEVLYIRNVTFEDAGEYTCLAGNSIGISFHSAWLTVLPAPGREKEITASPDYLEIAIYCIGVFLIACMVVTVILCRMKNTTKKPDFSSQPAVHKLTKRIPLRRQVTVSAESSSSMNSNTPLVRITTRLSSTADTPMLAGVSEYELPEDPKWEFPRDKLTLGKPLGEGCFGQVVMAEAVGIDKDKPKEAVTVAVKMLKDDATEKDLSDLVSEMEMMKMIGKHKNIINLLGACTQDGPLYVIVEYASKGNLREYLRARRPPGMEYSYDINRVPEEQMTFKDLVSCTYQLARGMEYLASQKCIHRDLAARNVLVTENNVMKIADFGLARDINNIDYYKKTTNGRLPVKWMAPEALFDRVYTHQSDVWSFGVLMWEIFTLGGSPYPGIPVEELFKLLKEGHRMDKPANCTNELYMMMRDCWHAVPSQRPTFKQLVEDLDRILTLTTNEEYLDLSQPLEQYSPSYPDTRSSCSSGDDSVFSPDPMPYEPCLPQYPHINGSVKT

## CN(C[C@@H]1COCCO1)S(=O)(=O)Nc1ccc2ccc3ncc(-c4cnn(C)c4)cc3c(=O)c2c1 [MK2461]
  IC50: 165 nM
